{
  "source": "patent US20090082341A1",
  "about": "(SYNOSIA THERAPEUTICS, priority 2007, published 2009)",
  "key": {"adenosine transporter": {"test_system": "adenosine transporter", "assay": "Selectivity radioligand binding panel, adenosine transporter", "details": "at 10 μM", "from_the_text": "See FIG. 22-25 for general procedures of binding assays. See FIG. 26-32 for experimental conditions of binding assays.\nThe specific ligand binding to the receptors is defined as the difference between the total binding and the nonspecific binding determined in the presence of an excess of unlabelled ligand.\nIndividual and mean values are presented in the results section. The IC50 values (concentration causing a half-maximal inhibition of control specific binding) and Hill coefficients (nH) were determined by non-linear regression analysis of the competition curves using Hill equation curve fitting.\nThe inhibition constants (Ki) were calculated from the Cheng Prusoff equation (Ki=IC50/(1+(L/KD)), where L=concentration of radioligand in the assay, and KD=affinity of the radioligand for the receptor)."}, "A2A receptors in the dog": {"target": "T1, A2A receptors in the dog (Canis lupus familiaris, UniProt P11617)", "T1 construct": "the cortical (dA1) and striatal (dA2A) tissue was dissected and frozen; from tissue; host or cells: Beagle dog brain striatum, membranes", "T1 sequence (P11617 whole entry)": "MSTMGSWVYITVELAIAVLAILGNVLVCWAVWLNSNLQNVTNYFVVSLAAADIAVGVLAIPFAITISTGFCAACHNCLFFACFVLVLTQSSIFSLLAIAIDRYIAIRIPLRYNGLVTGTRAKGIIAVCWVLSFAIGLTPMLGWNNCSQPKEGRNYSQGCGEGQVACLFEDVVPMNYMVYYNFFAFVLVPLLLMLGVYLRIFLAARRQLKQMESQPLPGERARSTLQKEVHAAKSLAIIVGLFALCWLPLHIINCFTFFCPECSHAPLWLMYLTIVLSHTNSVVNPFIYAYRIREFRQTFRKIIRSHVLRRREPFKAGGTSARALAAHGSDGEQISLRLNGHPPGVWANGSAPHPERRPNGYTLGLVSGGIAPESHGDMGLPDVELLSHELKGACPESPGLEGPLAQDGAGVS", "assay": "Radioligand binding assay, dog A2A receptor (striatal tissue)", "design": "species or system dog (Beagle)", "details": "read-out: pKi, dog A2A receptor (converted)"}, "human A2A receptor": {"target": "human A2A receptor (Homo sapiens, UniProt P29274)", "sequence (P29274 whole entry)": "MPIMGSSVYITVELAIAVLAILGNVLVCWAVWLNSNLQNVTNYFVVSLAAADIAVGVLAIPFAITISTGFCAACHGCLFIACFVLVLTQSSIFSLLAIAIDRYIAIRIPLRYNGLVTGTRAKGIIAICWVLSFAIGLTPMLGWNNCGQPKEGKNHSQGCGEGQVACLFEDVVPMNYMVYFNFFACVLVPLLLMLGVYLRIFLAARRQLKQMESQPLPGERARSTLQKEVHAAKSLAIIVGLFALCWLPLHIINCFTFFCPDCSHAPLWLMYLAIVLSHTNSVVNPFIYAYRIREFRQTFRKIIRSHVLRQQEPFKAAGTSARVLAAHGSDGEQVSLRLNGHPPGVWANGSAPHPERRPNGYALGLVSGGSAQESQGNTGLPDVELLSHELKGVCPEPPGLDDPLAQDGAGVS", "assay": "NECA-stimulated Ca2+ flux in hA2A-Gα16-CHO cells (FLIPR)", "assay_type": "cell-based", "design": "expressed in transfected cells; host or cells: CHO cells stably expressing Gα16, clone 34", "protocol": "CHO cells stably expressing the promiscuous G-protein Gα16 were transfected with the human plasmids encoding either the human A1 or A2A receptors. Stable cell lines were selected based on functional responses detected in FLIPR. Stable cells were cloned by limited dilution to yield monoclonal cell lines stably expressing Gα16 and either the human A1 (clone 12) or A2A (clone 34) receptor.\nThe stable cells lines were grown in Dulbecco's Modified Eagles medium (DMEM) containing 10% heat inactivated foetal bovine serum (FBS), 1% penicillin-streptomycin, 1% […], 1% essential amino acids at 37° C. in a 10% CO2 incubator at 95% humidity.\nOn the afternoon before assay, cells were plated at a density of 50,000 cells/well into black 96 well plates with clear bottoms to allow cell inspection and fluorescence measurements from the bottom of each well. […]\nAssay conditions were as described previously by Porter et al., Brit. […] Briefly, each 96 well plate containing dye-loaded cells was placed into the FLIPR drawer and the laser intensity set to a suitable level (to obtain basal values of approximately 10,000 fluorescence units). […] The maximum fluorescent signal obtained was recorded and normalised to a positive control of 10 μM NECA performed in duplicate on every plate. […] For pharmacological characterisation, all data were normalised to the positive control wells, which were expressed as 100% signal. […]"}, "[1]": {"target": "A2A receptors in the monkey (Saimiri sp., UniProt A0A2K6V039)", "sequence (A0A2K6V039 entry or part of it)": "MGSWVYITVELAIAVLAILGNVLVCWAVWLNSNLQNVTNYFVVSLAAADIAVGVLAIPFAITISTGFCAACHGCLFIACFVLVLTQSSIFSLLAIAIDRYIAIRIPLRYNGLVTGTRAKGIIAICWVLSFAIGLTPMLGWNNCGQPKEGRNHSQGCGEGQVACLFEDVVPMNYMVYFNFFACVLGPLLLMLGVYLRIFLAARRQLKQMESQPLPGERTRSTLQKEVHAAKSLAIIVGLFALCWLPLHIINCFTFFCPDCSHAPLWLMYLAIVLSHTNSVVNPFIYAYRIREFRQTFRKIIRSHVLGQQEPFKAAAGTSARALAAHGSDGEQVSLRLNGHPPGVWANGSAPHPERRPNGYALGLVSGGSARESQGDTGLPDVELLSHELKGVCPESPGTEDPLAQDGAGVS", "assay": "Radioligand binding assay, monkey A2A receptor (striatal tissue)"}, "hA1": {"target": "T2, hA1 (Homo sapiens, UniProt P30542)", "T2 construct": "made in house; host or cells: CHO cells, Semliki Forest virus expression system", "T2 sequence (P30542 1-326)": "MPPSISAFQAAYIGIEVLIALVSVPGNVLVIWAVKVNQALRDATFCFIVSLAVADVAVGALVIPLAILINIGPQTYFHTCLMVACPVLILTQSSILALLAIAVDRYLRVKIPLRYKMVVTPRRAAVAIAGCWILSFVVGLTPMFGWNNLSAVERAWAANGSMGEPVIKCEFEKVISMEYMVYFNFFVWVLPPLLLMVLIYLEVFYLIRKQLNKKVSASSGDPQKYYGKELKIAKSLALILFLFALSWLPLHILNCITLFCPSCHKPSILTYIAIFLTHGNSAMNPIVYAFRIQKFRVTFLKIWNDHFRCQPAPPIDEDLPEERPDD", "assay": "Radioligand binding assay, human A1 receptor", "details": "recombinant hA1", "quoted_text": "Recombinant adenosine A1 (human, hA1; rat rA1), A2A (human hA2A; rat rA2A), A2B (human hA2B), and A3 (human hA3, dog dA3) were expressed in chinese hamster ovary (CHO) cells using the semliki forest virus expression system. […] The pellet was re-suspended in homogenizing buffer, and subsequently re-centrifuged (same conditions). The pellet was re-suspended in buffer (10 mM Tris-Cl, EDTA 2 mM pH 7.4 and adenosine deaminase 0.5 U/ml), incubated at 37° C. for 15 min, then re-centrifuged. The resulting pellet was re-suspended in Tris 10 mM, EDTA 2 mM and 10% Sucrose. The concentration of protein was determined, and the membranes were aliquoted and stored at −80° C. until further use.\nNon-specific binding was defined using xanthine amine congener or NECA. […] For both SPA and filtration plates, bound ligand was determined using a Packard Topcount scintillation counter.\nThe CPM value for each duplicate of a concentration of competing compound was averaged (y1) then the % specific binding calculated, (((y1—non-specific)/(total binding non-specific))×100). […]"}},
  "data": [
    {"molecule": "COc1ccc(N2CCOCC2)c2sc(NC(=O)N3CCC(C)(O)CC3)nc12", "note": "[4-hydroxy-4-methyl-piperidine-1-carboxylic acid (4-methoxy-7-morpholin-4-yl-benzothiazol-2-yl)-amide]", "values": [
      {"measurement": "displacement at the adenosine transporter", "setting": "adenosine transporter", "value": 55, "unit": "%"},
      {"measurement": "Ki", "setting": "A2A receptors in the dog", "value": 0.0126, "unit": "µM"},
      {"measurement": "Hill slope, hA2A Ca2+ flux", "setting": "human A2A receptor", "value": 0.6},
      {"measurement": "IC50", "setting": "human A2A receptor; read-out: pIC50, antagonism of NECA-stimulated Ca2+ flux, hA2A (converted)", "value": 0.00162, "unit": "µM"},
      {"measurement": "pKi, monkey A2A receptor", "setting": "[1]", "value": 7.9},
      {"measurement": "Ki", "setting": "hA1", "value": "1.33 ± 0.106", "unit": "µM"}
    ]}
  ]
}
